Source: patent EP2873675A1, “Peptide-based peroxidase inhibitors and methods of using same” (The Medical College of Wisconsin, Inc., priority 2013, dated 2015)
Entries after “also recorded” stand apart in the source; their conditions may differ. Each block holds one molecule with its values, some of them ahead of it. Positions of bridges follow the written chain, without caps; N, C: chain ends. Non-standard residues stand in square brackets, D forms with d. Residues, ends and D or L forms follow the SMILES beside them. Chains are numbered I, II in the order given.

Assays:
[1] = test system: MPO; assay: MPO-catalyzed HOCl production (taurine/TMB assay); assay type: biochemical; conditions: for MPO-catalyzed HOCl production, dose-dependent effects: increasing concentrations
Description: (§1) MPO-mediated HOCl Production. MPO (20 nM) was incubated with H2O2 (50 µM), NaCl (150 mM), taurine (5 mM) and increasing concentrations of KYC in phosphate buffer (100 mM, pH 7.4) which also contained diethylene triamine pentaacetic acid (DTPA, 100 µM) to prevent non-specific, divalent metal cation oxidation for 30 min. Reactions were halted by addition of catalase. Chlorotaurine was quantified using the 3,3-,5,5-tetramethylbenzidine (TMB) assay. Briefly, 400 µL of reaction solution was mixed with 100 µL of 2 mM TMB, 100 µM NaI containing 10% dimethylformamide (DMF) in 400 mM acetate buffer (pH 5.4). After 5 min, absorbance (650 nm) was recorded on a UV/Vis spectrophotometer (Agilent Model 8453).
(§2) MPO-catalyzed HOCl Production: MPO (20 nM) was incubated with H2O2 (50 µM), NaCl (150 mM), taurine (5 mM) and increasing concentrations of KYC in a phosphate buffer (100 mM, pH 7.4) containing diethylene triamine pentaacetic acid (DTPA, 100 µM) to prevent non-specific, divalent metal cation oxidation for 30 min. Reactions were halted by addition of catalase (2,000 units/mL). Chlorotaurine was quantified using the TMB assay (66). Briefly, 400 µL of reaction solution was mixed with 100 µL of 2 mM TMB, 100 µM NaI containing 10% dimethylformamide (DMF) in 400 mM acetate buffer (pH 5.4). After 5 min, absorbance (650 nm) was recorded on a UV/Vis spectrophotometer (Agilent Model 8453).

[2] = target: T1, MPO (Homo sapiens, UniProt P05164); assay: MPO-mediated LDL oxidation (conjugated diene formation, absorbance at 234 nm); assay type: biochemical; conditions: 25 µM; for MPO/H2O2/nitrite-mediated LDL oxidation: H2O2 100 µM, NaNO2 100 µM, MPO 20 nM; for MPO/H2O2-mediated LDL oxidation: in the absence of nitrite
T1 construct: purchased Lee Biosolutions (St. Louis, MO)
T1 sequence (P05164 49-745): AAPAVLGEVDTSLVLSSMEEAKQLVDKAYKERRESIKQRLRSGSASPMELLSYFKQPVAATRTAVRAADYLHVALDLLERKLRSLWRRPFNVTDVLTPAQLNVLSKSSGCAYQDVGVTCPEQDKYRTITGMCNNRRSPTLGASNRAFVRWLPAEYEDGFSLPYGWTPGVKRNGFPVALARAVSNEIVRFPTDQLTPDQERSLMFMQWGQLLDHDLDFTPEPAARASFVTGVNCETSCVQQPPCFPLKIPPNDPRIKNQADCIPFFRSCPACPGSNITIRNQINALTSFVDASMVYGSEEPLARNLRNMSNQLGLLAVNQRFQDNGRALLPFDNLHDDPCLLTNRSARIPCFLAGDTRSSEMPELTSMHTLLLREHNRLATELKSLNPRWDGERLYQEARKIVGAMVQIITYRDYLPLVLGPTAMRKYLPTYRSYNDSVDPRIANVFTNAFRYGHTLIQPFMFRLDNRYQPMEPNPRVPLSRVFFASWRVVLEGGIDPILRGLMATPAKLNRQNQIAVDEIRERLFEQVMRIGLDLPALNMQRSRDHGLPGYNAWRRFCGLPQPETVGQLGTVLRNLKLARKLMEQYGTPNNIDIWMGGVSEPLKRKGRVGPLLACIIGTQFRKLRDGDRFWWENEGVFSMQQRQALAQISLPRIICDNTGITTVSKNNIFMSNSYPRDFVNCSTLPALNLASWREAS
Description: (§3) MPO-mediated oxidation of LDL. Reaction mixtures contained LDL (0.15 mg/ml), NaNO2 (100 µM), H2O2 (300 µM), MPO (20 nM) and various concentrations of KYC in a potassium phosphate buffer (100 mM, pH 7.4) containing DTPA (100 µM). LDL oxidation was monitored at 234 nm at room temperature on a HP UV/VIS spectrometer. Absorbance traces represent the average of duplicate experiments.
(§4) MPO-mediated LDL Oxidation. Reaction mixtures contained LDL (0.15 mg/mL), NaNO2 (100 µM), H2O2 (100 µM), MPO (20 nM) and increasing concentrations of KYC in a phosphate buffer (100 mM, pH 7.4) containing DTPA (100 µM). Rates of LDL oxidation were monitored at room temperature at 234 nm, the wavelength maximum for conjugated dienes.
(§5) MPO-mediated LDL Conjugated Diene Formation: Reaction mixtures contained LDL (0.15 mg/mL), NaNO2 (100 µM), H2O2 (100 µM), MPO (20 nM) and increasing concentrations of KYC or equimolar concentrations of various compounds in a phosphate buffer (100 mM, pH 7.4) containing DTPA (100 µM). Rates of LDL conjugated diene formation were determined by following changes in absorbance at 234 nm, the wavelength maximum for conjugated dienes, on a UV-Vis spectrophotometer (Agilent Model 8453) at room temperature.

[3] = test system: SS/Mcw rat hearts; assay: Ischemia/reperfusion injury in isolated perfused hearts (Langendorff)
Text: Ischemia/Reperfusion (I/R) Injury in Isolated Hearts. Rats used in this study received humane care in compliance with the Guide for the Care and Use of Laboratory Animals, by the National Research Council. Rats were maintained on a low salt (0.4% NaCl) diet with unlimited access to water. Environmental influences were minimized by maintaining rats in identical housing conditions. Dahl S (SS/Mcw male rats at 8 weeks of age were used for this study.
Modified Krebs-Henseleit bicarbonate buffer was prepared containing the following components (in mM): 118.5 NaCl, 25.0 NaHCO3, 4.8 KCl, 1.2 MgSO4·6H2O, and 1.2 KH2PO4 (pH 7.4 when gassed with 95% O2-5% CO2) in which the calcium content was 1.8. Glucose (11.1 mM) was added to the perfusate. Before use, all perfusion fluids were filtered through cellulose acetate membranes with a pore size of 5 µm. To this perfusate, drugs (KAA, KYC) were added as needed. Animals were weighed, and heparin was administered intraperitoneally based on weight (150 IU/kg). Anesthesia was induced with pentobarbital sodium (30 mg/kg ip). Once adequate anesthesia was obtained, the abdomen was opened, and the diaphragm was separated from its chest wall attachments and the pericardium opened. The aorta was clamped and the heart excised. The heart was then immediately transferred to the Langendorff apparatus, and the aorta was cannulated and secured using silk ties. Coronary arteries were perfused at constant pressure (80 mmHg) in a retrograde fashion with Krebs buffer. The heart was immersed in a bath containing Krebs buffer at 37.2 +/- 0.1°C to maintain conditions of normothermia. Left ventricular pressure (LVP) was measured isovolumetrically with a transducer connected to a thin, saline-filled latex balloon inserted into the left ventricle through the mitral valve from an incision in the left atrium.
Drug perfusion. After steady-state levels of function were reached, hearts were perfused with HZ2 (Ac-KYC-NH2) or HZ3 (Ac-KWC-NH2) at 50mg/L for 40 min prior to 35 min global ischemia and 2 hour reperfusion. The protocol for perfusing isolated hearts with or without KWC or scramble peptide KAA is described in Fig. 5A.

[4] = test system: NADPH oxidase (NOX); assay: PMA-stimulated HL-60 cell superoxide formation (SOD-inhibitable cytochrome C reduction); assay type: cell-based, human; conditions: cytochrome C assay
Description: PMA-induced Superoxide Anion Formation. HL-60 cells were cultured in RPMI 1640 medium containing 10 % FCS (passage 20-50). HL-60 cells were harvested by centrifugation (1000 rpm, 10 min), washed 2X with phosphate buffer (10 mM, pH 7.4) with NaCl (138 mM), KCl (2.67 mM), CaCl2 (0.901 mM), MgCl2 (0.493 mM) and glucose (1mg/ml) to remove culture medium. The HL-60 cells (6 x10^6/0.5ml) were re-suspended in DPBS. After stimulation with PMA (10 µM), the HL-60 cells were incubated with cytochrome C (40 µM) with or without superoxide dismutase at 37°C for 30 min. The reaction was stopped by centrifugation. Cytochrome C reduction was measured at 550 nm on a UV-Vis spectrophotometer (Agilent, Model 8453).
PMA-stimulated HL-60 cell O2^•- Formation: HL-60 cells were harvested by centrifugation (1000 rpm, 10 min), washed twice with DPBS with glucose to remove culture medium. The HL-60 cells (1.2 x10^7/ml) were re-suspended in DPBS with glucose. After stimulation with PMA (10 µM), the HL-60 cells were incubated with cytochrome C (40 µM) with or without superoxide dismutase (500 units/mL) at 37 °C for 10 min and then the HL-60 cells were removed by centrifugation. Cytochrome C reduction in supernatants was measured at 550 nm using a UV-Vis spectrophotometer (Agilent, Model 8453).

[5] = Thiol reduction of KYC disulfide (HPLC); assay type: physicochemical
Text: To confirm that KYC oxidation by MPO yields a simple disulfide, we reduced the product using simple thiols such as glutathione (GSH) and dithiothreitol (DTT).

[6] = target: T1, MPO; assay: MPO-catalyzed HOCl production (taurine/TMB assay); assay type: biochemical; conditions: 12.5 µM
Description: as §1, §2

[7] = test system: hypertensive rats; conditions: large doses; cited from earlier work
[8] = test system: MPO; assay: MPO-mediated LDL oxidation (conjugated diene formation, absorbance at 234 nm); assay type: biochemical; conditions: 25 µM; H2O2 100 µM, NaNO2 100 µM, MPO 20 nM
Description: as §3, §4, §5

Molecule: CC(=O)N[C@H](CCCCN)C(=O)N[C@H](Cc1ccc(O)cc1)C(=O)N[C@H](CS)C(N)=O [Ac-(d)K(d)Y(d)C-amide] (Ac-[dK]-[dY]-[dC]-NH2)
MPO-catalyzed HOCl production, comparison at equimolar concentration ([1]; 12.5 µM): less effective than KYC

Molecule: N[C@@H](CCC(=O)N[C@@H](CS)C(=O)NCC(=O)O)C(=O)O [GSH, glutathione]
MPO/H2O2/nitrite-mediated LDL oxidation [2]: ineffective for inhibiting LDL oxidation
MPO/H2O2-mediated LDL oxidation [2]: inhibited LDL oxidation; also recorded: did not increase LDL oxidation

Molecule: CC(=O)N[C@@H](CCCCN)C(=O)N[C@@H](Cc1c[nH]c2ccccc12)C(=O)N[C@@H](CS)C(N)=O [KWC, Ac-KWC-amide] (Ac-Lys-Trp-Cys-NH2)
percent recovery of LVDP after I/R injury ([3]; perfusion 40 min prior to 35 min global ischemia and 2 hour reperfusion, untreated 37.1±4.3): 55.3±4.1%
left ventricular developed pressure (LVDP) after I/R injury ([3]; perfusion 40 min prior to 35 min global ischemia and 2 hour reperfusion, untreated 38±3.9): 57.3±4.8 mmHg
increase of coronary flow rates after perfusion into the hearts ([3]; prior to ischemia): more than 20%
percent recovery of coronary flow rates after I/R ([3]; untreated control 49.6±3.4, p<0.05): 65.2±4%

reduction to KYC monomer by GSH ([5]; 10 mM GSH, 120 min): completely reduced
time to complete reduction to KYC monomer by DTT ([5]; DTT 0.5 mM, room temperature): ≤ 5 min
Molecule: CC(=O)N[C@@H](CCCCN)C(=O)N[C@@H](Cc1ccc(O)cc1)C(=O)N[C@@H](CSSC[C@H](NC(=O)[C@H](Cc1ccc(O)cc1)NC(=O)[C@H](CCCCN)NC(C)=O)C(N)=O)C(N)=O [KYC disulfide] (I: Ac-Lys-Tyr-Cys-NH2 / II: Ac-Lys-Tyr-Cys-NH2; disulfide I:3-II:3)
O2•- production in PMA-stimulated HL-60 cells [4]: neither KYC nor KYC disulfide have any significant effect; also recorded: Neither KYC nor KYC disulfide had any significant effect

MPO-catalyzed HOCl production, comparison at equimolar concentration [6]: effective inhibitor
MPO/H2O2-mediated LDL oxidation [2]: increased MPO-mediated LDL oxidation
Molecule: N[C@@H](Cc1c[nH]c2ccccc12)C(=O)O [Trp, tryptophan]
MPO/H2O2/nitrite-mediated LDL oxidation [2]: did not inhibit but actually enhanced LDL oxidation

Molecule: N[C@@H](Cc1ccc(O)cc1)C(=O)O [Tyr, tyrosine]
MPO-catalyzed HOCl production, comparison at equimolar concentration [6]: little, if any effect
MPO-catalyzed HOCl production, comparison at equimolar concentration ([6]; listed as Tyrosine): little if any effect
MPO/H2O2/nitrite-mediated LDL oxidation [2]: accelerated and enhanced LDL oxidation
MPO/H2O2-mediated LDL oxidation [2]: increased MPO-mediated LDL oxidation

Molecule: COc1ccc2[nH]cc(CCNC(C)=O)c2c1 [melatonin]
number of apoptotic cells in the vessel wall [7]: increased the number of apoptotic cells in the vessel wall

Molecule: N-acetyl Lysylphenylalanylcysteine amid [KFC]
reduction of HOCl detected by the taurine/TMB assay ([1]; 25 µM): 35%
MPO-catalyzed HOCl production, dose-dependent effects [1]: weaker inhibitor of HOCl formation
MPO/H2O2/nitrite-mediated LDL oxidation [8]: increased the lag phase and delayed, but did not totally inhibit LDL oxidation

Molecule: N-acetyl Lysyltyrosylcyeteine amide [KYS]
MPO-catalyzed HOCl production, dose-dependent effects [1]: failed to inhibit; also recorded: not an inhibitor
MPO/H2O2/nitrite-mediated LDL oxidation [8]: accelerated LDL oxidation
